The values that follow come from US9622469B2, “Crosslink breakers for preservation of biological substances” (priority 2013, dated 2017).

Experiment [1] can be described thus: Cleavage of PPD by NHC precursors, Method A (alcoholic co-solvent). The format is biochemical. The settings on record: co-solvent MeOH. Here is the method: Dicarbonyl cleavage reactions were performed using either the method described in Vasan et al., An agent cleaving glucose-derived protein crosslinks in vitro and in vivo, Nature (1996) Vol. 382, pp. 275-278 (Method A) or a modified method with MeCN as a co-solvent (Method B).
PPD (21 μl, 156 μmol) was added to a murky solution of NHC (2 or 4, 71 μmol) in 50% MeOH/0.5 M pH 7.4 sodium phosphate buffer (3.5 ml/3.5 ml; final conc. 10 mM NHC, 22 mM PPD) and kept stirred at 37° C. Approximately 0.5 ml aliquots were taken at stated times and analyzed by HPLC. Experiments using EtOH or iPrOH as a co-solvent were done in the same manner. Concentrations of benzoic acid and benzoate esters were determined by peak integration against the calibration curves.
Having learned that ALT-711 performed best among NHCs evaluated for PPD cleavage, we sought to test its substrate scope versus its N-benzyl counterpart (4). We therefore measured product distribution and yield while varying the co-solvent used to solubilize dicarbonyl substrates. As summarized in Table 2, we first investigated the performance of alcoholic co-solvents in PPD cleavage reactions. […] Despite this, however, the product distributions differed substantially: ALT-711 (2) predominantly afforded benzoic acid (PhCO2H:PhCO2Me=3.2:1, Entry 2), whereas 4 mostly gave rise to methyl benzoate (PhCO2H:PhCO2Me=1:2.2, Entry 4). Further replacement of the co-solvent with EtOH and i-PrOH in 4-catalyzed reactions led to a decrease in the proportion of ester production, still without altering overall yield (Entries 5 and 6).

The nature of experiment [2]: NHC-mediated cleavage of benzil (15), Method B. Format: biochemical. The settings on record: LCMS, with respect to dicarbonyl. How it is done: 60 mM solution of dicarbonyl substrate (45 μmol) in MeCN (0.75 ml) was added to 20 mM solution of NHC (15 μmol) in 0.15 M pH 7.4 sodium phosphate buffer (0.75 ml) and kept stirred at 37° C. At stated times, 75 μl aliquots were taken, diluted with 50% MeCN/H2O (425 μl) and analyzed by LCMS with 2,4-dihydroxyquinoline (248 μM) as an internal standard. The cleavage products were quantified by peak integration against the calibration curves.
Our efforts to investigate the scope of thiazolium salt-mediated reactions with dicarbonyls began with bis-alkyl diketone 14 (Table 3, Entry 1). This substrate is cleaved cleanly by 2, and affords acid 18 in 82% yield. NHC precursor 4, on the other hand, provides 18 in only 14% yield (Entry 2). The efficiency of dicarbonyl cleavage reactions decreases substantially in the case of benzil (15, Entry 3), which affords benzoic acid in 14% and 1% yield following exposure to 2 and 4, respectively.

A short description of experiment [3]: Trapping of methylglyoxal under physiological conditions (PBS). The format is biochemical. To be noted: 37° C., 24 hours, MGO at pathologically relevant concentration (4-6 μM). How it is done:
For trapping under physiological conditions (FIG. 5), 12.5 μl of 2 (40 mM stock) and 7.7 μl of MGO (6.5 mM stock) were added to PBS (4.98 ml) and kept stirred at 37° C. At stated times, 445 μl of the reaction mixture was taken, quenched with 1 M HCl (5 μl) and analyzed by LCMS after adding 50 μl of 3 mM 4-methoxybenzhydrol as an internal standard. Yield of ALT-MGO (20) was determined by peak integration (m/z=304) against a calibration curve.
Recognizing the reaction conditions employed above were non-physiological, we wanted to test if ALT-711 could efficiently trap methylglyoxal (MGO, 17) at a pathologically relevant concentration (4-6 μM). We obtained ALT-MOO adduct (20) in PBS with a 53% yield at 24 hours (FIG. 5B). […] The trapping of MGO by ALT-711 may be the mechanism for the observed effects.

In a further experiment the test system is mouse RBC. The experiment is described as follows: Storage of leukoreduced mouse blood in CPDA-1 at 4° C.: hemolysis and intact RBC count. The format is cell-based. To be noted: CPDA-1 buffer; for RBC viability / intact RBCs (hemocytometer): 13 days. How it is done:
FIG. 1 illustrates OCR6043-mediated prolonging of the integrity of stored RBCs. Leuko reduced mouse blood was stored under FDA-approved storage conditions (CPDA-1 buffer at 4° C.) for up to 13 days, in either OCR6043, control compound (structurally similar to OCR6043, but nonfunctional as a AGE crosslink breaker), or without any additive.
This solution was stored at 4° C. according to FDA-approved conditions for 13 days. […] The steps to collect HOD blood from mice and the addition of the FDA-approved storage buffer CPDA are described in Hendrickson et al., Transfusion of fresh murine red blood cells reverses adverse effects of older stored red blood cells, Transfusion (2011) Vol. 12, pp. 2695-2702.
We also counted the intact RBCs using a hemocytometer after 13 days of storage as also depicted in FIG. 1.

Another experiment concerns stored mouse blood. The experiment is described as follows: Glucose in serum of stored mouse blood (glucose oxidase enzymatic assay). The format is cell-based. To be noted: typical storage conditions, up to 14 days. How it is done:
Leuko-reduced mouse blood was stored under typical storage conditions for up to 14 days, in either OCR6043, control compound, or without any treatment. FIG. 2A illustrates an analysis of glucose in the serum from the stored blood was evaluated using a glucose oxidase enzymatic assay. […] FIG. 2B illustrates the AGE precursor levels on RBCs were measured using a dicarbonyl-specific fluorophore that was developed in-house. The time dependent increase in the AGE precursor levels was dampened in the presence of OCR6043. FIG. 2C illustrates mouse blood that was stored for 14 days, was evaluated for its immunogenicity upon transfusion, by testing for IgGs against an alloantigen on the RBCs (HOD=HEL-OVA-Duffy).

For experiment [4] the following is noted: rats; cited from earlier work.

SMILES strings stand for the structures.

Consider `Cc1sc[n+](CC(=O)c2ccccc2)c1C.[Cl-]` [Compound 2], for which, in experiment [1], the “Combined % Yield (PhCO2H, PhCO2Me)” value amounted to 54%. Also, the “% Yield of PhCO2H from substrate 15 (benzil)” value in experiment [2] is on record as 14%. For the same compound, the “Yield of ALT-MGO adduct (20)” value in experiment [3] amounted to 53%. Also, the entries for the “RBC viability / intact RBCs (hemocytometer)” value in the experiment with mouse RBC (listed as ALT-711) and in the experiment on mouse RBC (listed as OCR6043) were “higher levels of intact RBCs” and “superior cell viability”, respectively. In the experiment on mouse RBC (up to 13 days, 12 mM), the “Hemolysis of stored blood (supernatant appearance)” value is reported as “unhemolyzed”. The “Glucose levels in serum of stored blood” value with stored mouse blood is recorded as “more effective preservation of glucose levels”. The “MGO levels and MGO-induced glucose intolerance” value in experiment [4] is “lowered MOO levels and attenuated MOO-induced glucose intolerance”.
